Experimental data: patent US8962263B2, “Methods and compositions for detecting the activation state of multiple proteins in single cells” (The Board of Trustees of the Leland Stanford Junior …, priority 2001, dated 2015)

Assays:
[1] = test system: Jurkat T cells; experiment: anti-Fas induced apoptosis in ICAM-2 crosslinked Jurkat cells, annexin-V binding assay; type: cell-based, human; conditions: inhibitor 10 μM 1 hour, anti-Fas 50 ng/ml 8 hours
Experimental: A) ICAM-2, crosslinking induced AKT activity in Jurkat T cells and subsequent phosphorylation of GSK3, FKHR, and AFX as a function of time. Serum starved Jurkat T cells were incubated with either isotype control or anti-human ICAM-2, (10, μg/ml) for the indicated times. AKT kinase activity was determined as described. Immunoblot analysis verified AKT dual phosphorylation, FKHR and GSK3 phosphorylation, and BAD phosphorylation as a function of ICAM-2, crosslinking. B) ICAM-2 crosslinking induces AKT activity in BaF3, pre-B cells. […] ICAM-2, was crosslinked on 106, Jurkat T cells using an ICAM-2, mAb (10, μg/ml) 30, minutes prior to treatment with staurosporine (+) or DMSO vehicle (−). Apoptosis was determined by flow cytometry using annexin-V binding assay. […] Cells were assessed for apoptosis by annexin-V binding assay. […]
Apoptosis was determined either by counting pyknotic nuclei, annexin-V binding by flow cytometry, or TUNEL BrdU staining by flow cytometry as indicated. Apoptosis was induced either by staurosporine (1 μm), treatment with anti-mouse Fas (5 μq/ml Santa Cruz Biotechnology (SCB), anti-human Fas ([…]) as indicated in appropriate experiment, IL-3 withdrawal-(24 hrs) or as indicated. For pyknolic nuclei count, NIH3T3 cells were grown on glass coverslips and assayed for apoptosis. Suspension cells were analyzed by nuclear staining with 25 μM acridine orange/25 μm ethidium bromide or 5 μg/ml Hoechst 33342 (Molecular Probes, Eugene, Oreg.). Apoptosis was identified by the presence of characteristic pyknotic nuclei as described (Jacobson and Raff, 1995). At least 5 individual fields were photographed and counted using a Zeiss axioscope fluorescence microscope. […] The cells were trypsinized and viable cells counted following trypan blue staining. Untreated cells were counted at the time of treatment. % survival represents (number of viable cells post-treatment)/(number of viable cells pretreatment). […] Flow cytometry analysis was performed on a BD FACSCalibur machine with CELLQuest and analyzed using FlowJo software (Tree Star).

[2] = test system: CD19+ human B cells
[3] = test system: p44/42 MAPK; experiment: intracellular phospho-p44/42 MAPK by flow cytometry in ICAM-2 treated Jurkat cells; type: cell-based, human; conditions: chemical agents 10 μM, EDTA 1 mM; mAbs titrated prior to ICAM-2
From the text: A) Mean fluorescent intensity values (MFI) of ICAM-2-FITC (adhesion) and mAb24-Alexa633, (LFA-1, activation) in treated Jurkat cells (as above). Control unstimulated and/or compound pretreated values were subtracted. B) Top panel: Intracellular phospho-p44/42, MAPK detection as a function of ICAM-2, dose in Jurkat cells by flow cytometry (see Material and Methods). Mean fluorescent intensity values (MFI) were plotted±standard deviation (SD). Bottom panel: ICAM-2, treated Jurkat cells were stained for intracellular phospho-p44/42, MAPK as described above. mAbs to β2, and αL, integrins (10, μg/ml, 10, minutes) were titrated prior to ICAM-2, treatment as indicated and plotted for MFI±SD. C) ICAM-2, induced p44/42, MAPK activity is blocked by β2, and αL, integrin antibodies as determined by a p44/42 MAPK kinase assay. Conditions for induction and inhibition are as described above. Recombinant active p44/42, MAPK served as an internal positive control (denoted by “+”). D) Inhibition and activation profile for intracellular phospho-p44/42, by flow cytometry in the presences of chemical agents (10, μM), EDTA (1, mM), or PMA, ionomycin and ICAM-2, stimulus (as indicated above). MFI values±SD are plotted.
(§1) Intracellular and extracellular staining was performed as described (Perez and Nolan, 2002). Intracellular probes for active kinases were made by conjugating phospho-specific antibodies to the ALEXA FLUOR® dye series as described and used in phospho-protein optimized conditions (Perez and Nolan, 2002). Kinetic analyses was performed by direct application of fixation buffer in time synchronized 96-wells maintained at 37° C. Intracellular actin and microtubule staining was performed using phalloidin-Alexa633 and taxol-Alexa546 dyes (Molecular Probes). Adhesion and clustering assays were performed using ICAM-2-FITC as described in text. LFA-1 activation was assessed by either mAb24-Alexa633 or mAb24-Alexa546 conjugate, surface stained at 37° C. Flow cytometry data are representative of 3 independent experiments of 10^6 cells/sample. 10-50,000 events were collected and manually calibrated on a FACSCalibur™ machine. Data plotted in bar graph format is expressed as geometric mean fluorescence intensity (MFI) and normalized for isotype controls. Log ratios are defined as the MFI of stimulus to the MFI of unstimulated cells. Data was analyzed using Flowjo™ software (Treestar).

[4] = test system: ezrin; experiment: phosphotyrosine-protein based elisa for ezrin tyrosine phosphorylation upon ICAM-2 ligation; type: cell-based, human; conditions: Jurkat cells
Experimental: A) Expression levels of ICAM-2, vary across cell lines of different origins. Quantitative flow cytometry analysis was performed to assess the number of ICAM-2 surface molecules across transformed and untransformed fibroblasts, lymphocytes of T-cell and different B-cell differentiation states and myeloid lineages (see Material and Methods for elaboration). The number of surface molecules/cell is expressed as the mean (bar)+/−SD of triplicate experiments. B) Crosslinking of endogenous ICAM-2, induces ezrin tyrosine phosphorylation and enhanced ICAM-2, interaction. Jurkat cells were crosslinked for ICAM-2 using monoclonal antibody for the indicated times and subjected to immunoprecipitation/immunoblotting as indicated. C) Inhibition of ezrin phosphotyrosine by chemical inhibitors of src and Rho-dependent kinases. D) Ezrin phosphorylation and enhanced interaction with the p85, subunit of PI3K as a function of ICAM-2. Determined as described above. E) PDK-1, activity as a function of ICAM-2, ligation, as described above). F) PI3K and AKT localize to the membrane as a function of ICAM-2, ligation. Membrane/cytosolic fractionation was performed on ICAM-2, ligated Jurkat cells as a function of time and subjected to immunoblotting for PI3K and AKT.
In order to identify upstream kineses capable of tyrosine phosphorylating ezrin as a function of ICAM-2 ligation, we developed a phosphotyrosine-protein based elisa to screen for the inhibition of ezrin tyrosine phosphorylation in vivo by various known inhibitors of protein kineses (Perez and Nolan, manuscript in preparation). […] Given the design of the screen to detect tyrosine residue phosphorylation, we speculate that activation of Rho-dependent processes may be a prerequisite for ezrin to be tyrosine phosphorylated by src (elaborated below).

[5] = test system: LFA-1; experiment: LFA-1 activation by mAb24-Alexa633 staining, flow cytometry; type: cell-based, human; conditions: Jurkat cells; agents 10 μM 30 min, PMA 1 μg/ml, prior to ICAM-2 10 μg/ml 30 min
Experimental: A) Confocal microscopy of actin and microtubule architecture upon ICAM-2, stimulus (10, μg/ml, 30, min) in Jurkat cells. Actin was stained by phalloidin-alexa633, and tubulin by taxol-alexa546. Inserts display enlarged cell image of representative treatment B) Flow cytometric staining for actin and microtubules as described above. C) Left: Fluorescence topography analysis of ICAM-2-FITC (1 μg/ml, time as indicated) surface distribution. Intensity color gradient depicts high and low fluorescent intensity values. Right: Confocal microscopy of ICAM-2-FITC surface binding (10 μg/ml, 30, min) and anti-β2-alexa568, (clone CTB104). D) Staining for ICAM-2-FITC surface binding (fluorescence intensity) and surface distribution (fluorescence pulse) in cytochalisin D treated Jurkat cells at 37° C. and 4° C. by flow cytometry. E) Values for ICAM-2-FITC fluorescence intensity per time-of-flight per cell as described in text. F) Flow cytometric staining for LFA-1 activation by mAb24-alexa633. Stimuli as indicated (10, μM, 30, min), PMA (1, μg/ml) prior to ICAM-2, stimulation (10, μg/ml, 30, min). Staining was performed at 37° C. G) Mean fluorescence intensity (MFI) values of mAb24-633, and ICAM-2, cluster values, computed as described above, as a function of time.
as §1

[6] = target: T1, cell surface LFA-1 (Homo sapiens, UniProt P20701); experiment: ICAM-2-FITC surface binding on Jurkat cells by flow cytometry (single cell binding measurements); conditions: cytochalisin D treated Jurkat cells
T1 construct: within the physiological context of cell surface LFA-1; endogenous in cells; host or cells: Jurkat T cells
Experimental: A) Purified human ICAM-2, from retrovirally transduced NIH3T3, (see materials and methods) was tested for purity, size, and aggregate formation by native gel electrophoresis and gel filtration. Analysis of purified ICAM-2, from two different preps and ICAM2-FC from NSO cells. Molecular weight was calculated using relative distance migration from a molecular weight standard. Concentration was determined using serial dilutions of BSA as a standard. […] B) ICAM-2, ligand binding to cell surface as a function of time. 5×10^6, unstimulated and PMA stimulated (1, μg/ml, 30, min) Jurkat T cells were incubated with ICAM-2-FITC or LFA-1-FITC antibody (1, μg/ml) and subjected to time dependent flow cytometry. Mean fluorescence intensity was plotted per time of a gated homogenous cell population. Flow rate was maintained at 200-300, cells/second, with fluorescence intensity values acquired at 10, millisecond intervals for 1200, seconds. C) Flow cytometric analysis of ICAM-2-FITC and a-LFA-1-FITC surface binding on cytochalisin D treated (10, μM, 30, min) Jurkat cells at 37° C. and 4° C. D) Curve fit analysis of ICAM-2-FITC binding per 10^4, cells. Jurkat cells were incubated with ICAM-2-FITC at 37° C. for 30, min at indicated concentrations in 50, μL volume. Cells were washed 1×, and analyzed for mean fluorescent intensity (MFI) of 10^4, cells. Percent ICAM-2-FITC bound was calculated from the following equation: 100×[(MFI[×]−MFIunstained)/(MFI[saturated]−MFIunstained)] where [×]=ICAM-2-FITC concentration and [saturated]=concentration that saturated binding. Values were fit to the equation Y=m1*M0/(m2+M0) (see materials and methods).
Full length ICAM2 cDNA was obtained from Jurkat cells and cloned into retroviral vector PBM-Z-IN at the BamHI/Sal1 site as described (Perez et al., 2002). Human ICAM-2 was overexpressed in NIH3T3 cells by retroviral infection and harvested by immunoaffinity chromatography. ICAM-2 was affinity purified using a two step lysing procedure and subsequent purification on an anti-ICAM-2 solid support. […] Batch lysate of harvested supernatant was performed (4° C., for 2 hrs), and washed 4 times in buffer C (0.1% Tween-20, PBS pH 7.4). ICAM-2 protein was eluted by 4.5 M NaCl (in Tris pH 6.8), dialyzed overnight (in PBS pH 7.4, 0.001% azide, 0.01% glycerol, 4° C.), concentrated using size exclusion spin chromatography and stabilized using 0.01% glycerol. Anti-ICAM-2 solid support was re-equilibrated in buffer C, stored in 0.001% thimerosol and re-used up to 3 times. Purity was >98% as assessed by coomasie gel. […] Gel imaging was performed on a VersaDoc machine (Biorad) and analyzed using Quantity One quantitation software (Biorad). […]

T1 sequence (P20701 26-1170): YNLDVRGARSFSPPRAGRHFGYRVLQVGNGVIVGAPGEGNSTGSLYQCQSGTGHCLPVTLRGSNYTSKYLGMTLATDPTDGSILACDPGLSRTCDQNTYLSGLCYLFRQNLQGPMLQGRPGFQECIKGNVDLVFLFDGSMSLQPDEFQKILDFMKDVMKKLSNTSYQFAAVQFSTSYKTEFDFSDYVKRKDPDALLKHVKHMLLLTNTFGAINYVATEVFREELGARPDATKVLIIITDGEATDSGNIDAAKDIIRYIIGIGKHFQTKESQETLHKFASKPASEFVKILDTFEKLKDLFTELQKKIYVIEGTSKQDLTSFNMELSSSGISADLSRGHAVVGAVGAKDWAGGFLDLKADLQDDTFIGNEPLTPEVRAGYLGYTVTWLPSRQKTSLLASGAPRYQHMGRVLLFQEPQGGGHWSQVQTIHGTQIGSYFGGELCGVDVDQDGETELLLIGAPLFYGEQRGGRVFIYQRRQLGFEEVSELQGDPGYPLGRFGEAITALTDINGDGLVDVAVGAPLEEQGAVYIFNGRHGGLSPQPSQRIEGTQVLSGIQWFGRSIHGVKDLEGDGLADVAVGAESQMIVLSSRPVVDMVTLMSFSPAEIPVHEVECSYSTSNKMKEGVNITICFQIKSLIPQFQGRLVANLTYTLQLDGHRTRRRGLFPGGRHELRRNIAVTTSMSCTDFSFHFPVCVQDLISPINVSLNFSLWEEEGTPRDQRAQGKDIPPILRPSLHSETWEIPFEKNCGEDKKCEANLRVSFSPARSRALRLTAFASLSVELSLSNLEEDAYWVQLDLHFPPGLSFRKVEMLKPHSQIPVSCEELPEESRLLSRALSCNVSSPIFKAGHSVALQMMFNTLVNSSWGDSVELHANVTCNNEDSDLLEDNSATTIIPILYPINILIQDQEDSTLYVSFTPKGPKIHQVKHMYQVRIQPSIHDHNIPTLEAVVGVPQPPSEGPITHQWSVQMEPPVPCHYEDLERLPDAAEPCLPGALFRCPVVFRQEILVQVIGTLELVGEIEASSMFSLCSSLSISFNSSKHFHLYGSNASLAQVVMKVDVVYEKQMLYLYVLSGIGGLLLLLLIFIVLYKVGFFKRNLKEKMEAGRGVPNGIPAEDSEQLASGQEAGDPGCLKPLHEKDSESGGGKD
T1 sequence (P05107 23-769 partner): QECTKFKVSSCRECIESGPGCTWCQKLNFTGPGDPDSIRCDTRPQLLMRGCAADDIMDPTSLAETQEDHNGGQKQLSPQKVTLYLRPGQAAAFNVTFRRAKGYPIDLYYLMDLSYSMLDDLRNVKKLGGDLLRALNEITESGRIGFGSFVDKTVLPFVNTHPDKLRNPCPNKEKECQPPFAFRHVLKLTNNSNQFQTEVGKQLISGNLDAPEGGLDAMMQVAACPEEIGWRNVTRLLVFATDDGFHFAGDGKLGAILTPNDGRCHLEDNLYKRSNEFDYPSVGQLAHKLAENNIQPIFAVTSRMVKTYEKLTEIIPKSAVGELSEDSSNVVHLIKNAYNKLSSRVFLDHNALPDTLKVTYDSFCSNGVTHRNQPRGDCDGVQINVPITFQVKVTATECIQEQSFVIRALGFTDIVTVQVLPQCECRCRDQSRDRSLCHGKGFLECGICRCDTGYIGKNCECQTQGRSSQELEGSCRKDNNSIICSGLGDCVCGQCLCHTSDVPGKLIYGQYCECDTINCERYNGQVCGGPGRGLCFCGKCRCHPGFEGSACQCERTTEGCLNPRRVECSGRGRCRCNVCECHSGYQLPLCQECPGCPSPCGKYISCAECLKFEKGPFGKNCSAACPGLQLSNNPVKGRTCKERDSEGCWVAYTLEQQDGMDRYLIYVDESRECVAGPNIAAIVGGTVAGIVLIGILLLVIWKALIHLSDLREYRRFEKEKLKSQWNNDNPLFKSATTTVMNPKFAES

| Compound | ICAM-2 crosslinking protection against Fas induced apoptosis [1] | apoptosis in primary cells on incubation with compound [2] | effect on ICAM-2 induced p44/42 MAPK phosphorylation [3] | tyrosine phosphorylation of ezrin [4] | LFA-1 activation (mAb24 binding) [5] | LFA-1 receptor clustering and ICAM-2 binding [6] |
| --- | --- | --- | --- | --- | --- | --- |
| Nc1nc2c(ncn2[C@@H]2O[C@H](COP(=O)(O)OP(=O)(O)OP(O)(O)=S)[C@@H](O)[C@H]2O)c(=O)[nH]1 [GTPγS] | abrogated | induced apoptosis |  |  |  |  |
| CO[C@H]1[C@@H](OC)C[C@H](C)[C@@H](OC)C2=CC(=O)C=C(NC(=O)/C(C)=C/C=C\[C@H](OC)[C@@H](OC(N)=O)/C(C)=C/[C@@H]1C)C2=O [herbimycin A] | abrogated | induced apoptosis | no effect | inhibit tyrosine phosphorylation of ezrin |  |  |
| cytochalisin D |  |  | diminished |  | attenuated | enhanced LFA-1 receptor clustering and subsequent ICAM-2 binding |
